For data set [1], the system named is HeLa (cervical carcinoma). Briefly: MTT proliferation assay, HeLa cells. It is filed as cell-based, human. As to conditions: 72 h, read-out: IC50 (50% growth inhibition) HeLa. As for the experimental part:
(§1) This study was set out to examine the anti-proliferative effects of coumarin derivates (3–18) on human tumor cell lines and normal (diploid) human fibroblasts.
(§2) Cell culturing: Human cell lines HeLa (cervical carcinoma), SW620 (colorectal adenocarcinoma, metastatic), MCF-7 (breast epithelial adenocarcinoma, metastatic), HepG2 (hepatocellular carcinoma) and BJ (normal diploid human fibroblasts) were cultured as monolayers and maintained in Dulbecco’s modified Eagle medium (DMEM) supplemented with 10% fetal bovine serum (FBS), 2 mM L-glutamine, 100 U/mL penicillin and 100 μg/mL streptomycin in a humidified atmosphere with 5% CO2 at 37 °C.
(§3) Proliferation assay: The cell lines were inoculated into a series of standard 96-well microtiter plates on day 0 at seeding density of 3,000–6,000 cells per well depending upon their specific doubling times. Freshly prepared dilutions of test compounds in culture medium in the concentration range 1 × 10^−8–1 × 10^−4 M were added to the microtiter plates, and the cells were grown for further 72 h. The solvent (DMSO) was also tested for its potential inhibitory activity by adjusting its concentration to the values used for the preparation of the working concentrations (DMSO concentration never exceeded 0.1%). After 72 h of incubation, the cell growth rate was evaluated by performing the MTT assay: experimentally determined absorbance values were transformed into the cell percentage growth (PG) using the formulas proposed by NIH and described previously. This method directly relies on control cells behaving normally at the day of assay commencement because it compares the growth of treated cells with that of untreated cells in control wells on the same plate. The results are therefore a percentile difference from the calculated expected value. […] If, however, all of the tested concentrations produce PGs exceeding the respective reference level of effect (e.g., PG value of 50) for a given cell line, the highest tested concentration is assigned as the default value (in the screening data report that default value is preceded by a “>” sign). Each test point was performed in quadruplicate in three individual experiments. The results were statistically analyzed (ANOVA, Tukey post-hoc test at p < 0.05).

Data set [2] deals with MCF-7 (breast epithelial adenocarcinoma, metastatic). The data set is described as follows: MTT proliferation assay, MCF-7 cells. It is filed as cell-based, human. As to conditions: read-out: IC50 (50% growth inhibition) MCF-7. As for the experimental part:
as §1, §2, §3

The test system of data set [3] is HepG2 (hepatocellular carcinoma). Briefly: MTT proliferation assay, HepG2 cells. Type of data set: cell-based, human. As to conditions: 72 h, read-out: IC50 (50% growth inhibition) HepG2. As for the experimental part:
as §1, §2, §3

In data set [4] the test system is SW620 (colorectal adenocarcinoma, metastatic). Briefly: MTT proliferation assay, SW620 cells. Type of data set: cell-based, human. The conditions noted are these: read-out: IC50 (50% growth inhibition) SW620. As for the experimental part:
as §1, §2, §3

Data set [5] deals with BJ (normal diploid human fibroblasts). Briefly: MTT proliferation assay, BJ normal fibroblasts. Type of data set: cell-based. As to conditions: 72 h, read-out: IC50 (50% growth inhibition) BJ. As for the experimental part: as §1, §2, §3

“And” between values parts separate entries of the source, which are not always exact repeats. Identical values can stand only once. Like-named read-outs stand apart in the source and are kept apart here. Bounds are passed on as bounds.

Regarding “1-(4-Hydroxy-2-(2-hydroxy-4-methoxyphenyl)butyl)guanine [Compound 18]”, the IC50 in data set [1], in data set [2] (72 h), in data set [3], in data set [4] (72 h) and in data set [5] was above 100 µM each time.

For “1-((7-Hydroxy-2-oxo-2H-chromen-4-yl)methyl)-2-amino-6-chloropurine [Compound 10]”, the IC50 in data set [1] was 34 ± 8.4 µM; in data set [2] (72 h), above 100 µM; in data set [3] it was 25 µM and 25.6 µM; in data set [4] (72 h), 35 µM and 35.4 µM; in data set [5], above 100 µM.

As for “1-((7-Hydroxy-2-oxo-2H-chromen-4-yl)methyl)-2-aminopurine [Compound 11]”, the half-maximal inhibitory concentration (IC50) in data set [1], in data set [2] (72 h), in data set [3], in data set [4] (72 h) and in data set [5] was above 100 µM each time.

Take “1-((7-Hydroxy-2-oxo-2H-chromen-4-yl)methyl)-6-chloropurine [Compound 8]”: the IC50 in data set [1], in data set [2] (72 h), in data set [3], in data set [4] (72 h) and in data set [5] was above 100 µM each time.

Take “1-((7-Hydroxy-2-oxo-2H-chromen-4-yl)methyl)purine [Compound 9]”: the IC50 in data set [1], in data set [2] (72 h), in data set [3], in data set [4] (72 h) and in data set [5] was above 100 µM throughout.

“1-((7-Methoxy-2-oxo-2H-chromen-4-yl)methyl)-2-amino-6-chloropurine [Compound 12]”: the IC50 in data set [1], in data set [2] (72 h), in data set [3], in data set [4] (72 h) and in data set [5] was above 100 µM in each case.

Turning to “1-((7-Methoxy-2-oxo-2H-chromen-4-yl)methyl)guanine [Compound 13]”, the IC50 in data set [1], in data set [2] (72 h), in data set [3], in data set [4] (72 h) and in data set [5] was above 100 µM throughout.

For `COC(=O)c1ncn(Cc2cc(=O)oc3cc(O)ccc23)n1` [Compound 3, Methyl 1-((7-hydroxy-2-oxo-2H-chromen-4-yl)methyl)-1,2,4-triazole-3-carboxylate], the melting point lay in the range of 216 to 218 °C. For the same molecule, the IC50 in data set [1] (Homo sapiens, HeLa) is above 100 µM. Also, in data set [2] (Homo sapiens, MCF7, 72 h), the IC50 was above 100 µM. Further, the IC50 in data set [3] (Homo sapiens) is above 100 µM. For the same molecule, the IC50 in data set [4] (Homo sapiens, SW-620, 72 h) is above 100 µM. Moreover, in data set [5] (Homo sapiens, Fibroblast), the IC50 is above 100 µM.

As to `NC(=O)c1ncn(Cc2cc(=O)oc3cc(O)ccc23)n1` [Compound 4, 1-((7-Hydroxy-2-oxo-2H-chromen-4-yl)methyl)-1,2,4-triazole-3-carboxamide], the IC50 in data set [1] (Homo sapiens, HeLa) is above 100 µM; in data set [2] (Homo sapiens, MCF7, 72 h) it was above 100 µM; in data set [3] (Homo sapiens), above 100 µM; in data set [4] (Homo sapiens, SW-620, 72 h), above 100 µM; in data set [5] (Homo sapiens, Fibroblast), above 100 µM.

With `COC(=O)c1ncn(Cc2cc(=O)oc3cc(OC)ccc23)n1` [Compound 5, Methyl 1-((7-Methoxy-2-oxo-2H-chromen-4-yl)methyl)-1,2,4-triazole-3-carboxylate], the melting point lay in the range of 234 to 237 °C. Also, in data set [1] (Homo sapiens, HeLa), the IC50 is above 100 µM. In data set [2] (Homo sapiens, MCF7, 72 h), the IC50 is above 100 µM. For the same molecule, the IC50 in data set [3] (Homo sapiens) was above 100 µM. Moreover, the IC50 in data set [4] (Homo sapiens, SW-620, 72 h) is above 100 µM. The IC50 in data set [5] (Homo sapiens, Fibroblast) was above 100 µM.

For the molecule `COc1ccc2c(Cn3cnc(C(N)=O)n3)cc(=O)oc2c1` [Compound 6, 1-((7-Methoxy-2-oxo-2H-chromen-4-yl)methyl)-1,2,4-triazole-3-carboxamide], the IC50 in data set [1] was 35.5 ± 13.5 µM; in data set [1] (Homo sapiens, HeLa), 35 µM; in data set [2] (Homo sapiens, MCF7, 72 h), above 100 µM; in data set [3] (Homo sapiens), above 100 µM; in data set [4] (Homo sapiens, SW-620, 72 h), above 100 µM; in data set [5] (Homo sapiens, Fibroblast), above 100 µM.

The molecule `N#Cc1ncn(Cc2cc(=O)oc3cc(O)ccc23)c1C#N` [Compound 7, 1-((7-Hydroxy-2-oxo-2H-chromen-4-yl)methyl)-4,5-dicyanoimidazole] gave a melting point of 238 to 240 °C. Moreover, the IC50 in data set [1] (Homo sapiens, HeLa) was above 100 µM. In addition, in data set [2] (Homo sapiens, MCF7, 72 h), the IC50 is above 100 µM. In data set [3] (Homo sapiens), the IC50 was above 100 µM. Moreover, in data set [4] (Homo sapiens, SW-620, 72 h), the IC50 was above 100 µM. Besides, the IC50 in data set [5] (Homo sapiens, Fibroblast) was above 100 µM.

On to `CCOC(=O)c1ncn(CC(CCO)c2ccc(OC)cc2O)n1` (stereo not drawn) [Compound 14, Ethyl 1-(4-hydroxy-2-(2-hydroxy-4-methoxyphenyl)butyl)-1,2,4-triazole-3-carboxylate], for which the IC50 is above 100 µM in data set [1] (Homo sapiens, HeLa); above 100 µM in data set [2] (Homo sapiens, MCF7, 72 h); above 100 µM in data set [3] (Homo sapiens); above 100 µM in data set [4] (Homo sapiens, SW-620, 72 h); above 100 µM in data set [5] (Homo sapiens, Fibroblast).

For `COc1ccc(C(CCO)Cn2cnc(C(N)=O)n2)c(O)c1` (stereo not drawn) [Compound 15, 1-(4-Hydroxy-2-(2-hydroxy-4-methoxyphenyl)butyl)-1,2,4-triazole-3-carboxamide], the IC50 in data set [1] (Homo sapiens, HeLa) is above 100 µM; in data set [2] (Homo sapiens, MCF7, 72 h), above 100 µM; in data set [3] (Homo sapiens) it was above 100 µM; in data set [4] (Homo sapiens, SW-620, 72 h), above 100 µM; in data set [5] (Homo sapiens, Fibroblast) it was above 100 µM.

Regarding `COc1ccc(C(CCO)Cn2cncn2)c(O)c1` (stereo not drawn) [Compound 16, 1-(4-hydroxy-2-(2-hydroxy-4-methoxyphenyl)butyl)-1,2,4-triazole], the IC50 is above 100 µM in data set [1] (Homo sapiens, HeLa); above 100 µM in data set [2] (Homo sapiens, MCF7, 72 h); above 100 µM in data set [3] (Homo sapiens); above 100 µM in data set [4] (Homo sapiens, SW-620, 72 h); above 100 µM in data set [5] (Homo sapiens, Fibroblast).

For `COc1ccc(C(CCO)Cn2cnc(CO)n2)c(O)c1` (stereo not drawn) [Compound 17, ethyl 1-(4-hydroxy-2-(2-hydroxy-4-methoxyphenyl)butyl)-1,2,4-triazole-3-hydroxymethyl], the IC50 was above 100 µM in data set [1] (Homo sapiens, HeLa); above 100 µM in data set [2] (Homo sapiens, MCF7, 72 h); above 100 µM in data set [3] (Homo sapiens); above 100 µM in data set [4] (Homo sapiens, SW-620, 72 h); above 100 µM in data set [5] (Homo sapiens, Fibroblast).

(Values after publication PMC6268888, “Novel Coumarin Derivatives Containing 1,2,4-Triazole, 4,5-Dicyanoimidazole and Purine Moieties: Synthesis and Evaluation of Their Cytostatic Activity” (Molecules, 2012).)
